Data as given in article PMC9820118, “Betulin Acid Ester Derivatives Inhibit Cancer Cell Growth by Inducing Apoptosis through Caspase Cascade Activation: A Comprehensive In Vitro and In Silico Study” (International Journal of Molecular Sciences, 2022).
“Also recorded” adds a separate entry of the source.

How the values were obtained:
PC-3 cell line = experiment: Antiproliferative activity, SRB assay, PC-3 prostate carcinoma cells; details: for IC50: Homo sapiens, PC-3, 72 h, read-out: Cytotoxicity IC50 against PC-3 cell line; for Calculated Selectivity Index SI, PC-3: IC50 BALB/3T3 / IC50 PC-3
Description: (§7) The in vitro antiproliferative activity tests have been conducted against four human cancer cell lines: MV4-11 biphenotypic B myelomonocytic leukemia cell line, A549 lung carcinoma cell line, MCF-7 breast carcinoma cell line, PC-3 prostate carcinoma cell line and one normal BALB/3T3 mouse fibroblast cell line. […] All tested compounds were dissolved in DMSO and diluted with a culture medium to a desired concentration. […] Cell viability, after 72 h incubation of the cells with tested compounds, was determined using tetrazolinum dye MTT (for MV4-11 cells) or sulforhodamine B (SRB test, for MCF-7, A549, PC-3, BALB/3T3 cells) colorimetric assays.
(§8) Human biphenotypic B myelomonocytic leukemia MV4-11, murine normal fibroblast BALB/3T3 cells were obtained from the American Type Culture Collection (USA); and human lung carcinoma A549, human breast cancer MCF-7 and human prostate adenocarcinoma PC-3 were obtained from the European Collection of Authenticated Cell Cultures (UK).
(§9) MV4-11 and PC-3 cells were cultured in RPMI 1640 medium (HIIET PAS, Poland) with 1.0 mM sodium pyruvate (only MV4-11) and 10% fetal bovine serum (FBS) (all from Merck, Darmstadt, Germany). A549 cells were cultured in RPMI 1640 + Opti-MEM (1:1) ((HIIET PAS, Poland and Gibco, UK) supplemented with 5% fetal bovine serum (Merck, Darmstadt, Germany). The MCF-7 cells were cultured in Eagle medium (HIIET PAS, Poland) supplemented with 8 mg/mL of insulin and 1% of MEM NON-Essential amino acid (all Merck, Darmstadt, Germany). Normal fibroblasts BALB/3T3 cells were cultured in DMEM medium (Gibco, UK) supplemented with 10% fetal bovine serum and 1.0 mM sodium pyruvate (all from Merck, Darmstadt, Germany). All culture media were supplemented with 2 mM L-glutamine (Merck, Darmstadt, Germany), 100 units/ml penicillin, (Polfa Tarchomin S.A., Poland) and 100 µg/mL streptomycin (Merck, Darmstadt, Germany). All cell lines were grown at 37 °C in a 5% CO2 humidified atmosphere.
(§10) The solutions of the tested compounds were prepared by dissolving the substances in DMSO to the desired concentration (25 mM). Then, the tested compounds were diluted in a culture medium to reach the final concentrations. Before addition of the tested compounds (24 h prior), the cells were plated in 96-well plates (Sarstedt, Germany) at a density of 1 × 10^4, 0.75 × 10^4 (MCF-7) or 0.5 × 10^4 (A549) cells per well. The assay was performed after 72 h of exposure to 100, 10, 1 and 0.1 µM concentration of the tested agents. […] The SRB method determined the amount of cellular proteins. The concentration of the colorimetric probe (formazan in MTT or sulforhodamine B in SRB method) was determined by an optical density measurement using a standard microplate reader for 96-well plates. After optical density measurement, using the data of the mean absorbances of control cells (AbCC), the absorbances of cells treated by the tested compound (AbTr) (for each concentration separately) and the absorbance of the cultured medium (AbCM) the % of cell proliferation inhibition was calculated according to the following formula: % inh. cells proliferation=100−AbTr−AbCM/AbCC−AbCM×100
(§11) From the obtained proliferation inhibition values, effect-concentration curves of the compound used were plotted. […] IC50 values were calculated for each experiment separately using the Prolab-3 system based on Cheburator 0.4 software [36] and mean values (±SD) are presented. Each compound in each concentration was tested in triplicate in a single experiment, which was repeated 3–5 times.

[1] = Experimental lipophilicity by RP-TLC; details: for RM0: RP-TLC, RP-18 F254S, acetone / Tris buffer pH 7.4, extrapolated to zero acetone
Description: The retention mechanism in the RP-TLC method is based on the partition of substances between two phases. Silica gel (RP-18 F254S plates) was used as the hydrophobic stationary phase. In contrast, the hydrophilic mobile phase was a binary mixture of acetone and an aqueous solution of TRIS buffer.
Chromatographic analysis by RP-TLC was performed an aluminum backed silica gel RP-18 F254S
phenylanthracene] and tested betulin derivatives were dissolved in chloroform to obtain a
concentration of 2 mg/mL. The prepared solutions were spotted on the plates in the amount of 2 μL.
the next step, the chromatographic chambers were saturated 30 min of the appropriate mobile phases
consisting of a mixture of acetone (Merck, Darmstadt, Germany) and aqueous solution of buffer Tris
[(tris-hydroxymethyl)aminomethane] (Fluka, Loughborough, 0.2 M, pH 7.4). The amount of acetone in
the mobile phase were in the range 60-90% in 5% increments. The chromatograms were developed for
each compound in triplicate at room temperature. The spots of betulin derivatives were visualized by
spraying the plates with the mixture of ethanol and concentrated sulfuric acid (10:1, v/v) and heating
The retardation factor (Rf) were calculated according to the equation below:
(a-the distance from the start line to the spot center, b-the distance from the start line to the mobile
The RM values were calculated by the Bate-Smith and Westall equation:
The RM0 parameters were obtained by extrapolating on the acetone content to zero, according to the
Soczewiński-Wachtmeister equation:
(C-the percentage concentration of acetone in the mobile phase, b-the slope of the regression plot).
The calibration curve was determined using eight reference compounds.
compounds were determined under the same conditions as for betulin derivatives (Table S1).

MCF-7 cell line = experiment: Antiproliferative activity, SRB assay, MCF-7 breast carcinoma cells; details: for IC50: Homo sapiens, MCF7, 72 h, read-out: Cytotoxicity IC50 against MCF-7 cell line; for Calculated Selectivity Index SI, MCF-7: IC50 BALB/3T3 / IC50 MCF-7
Description: as §7, §8, §9, §10, §11

caspase-3/7 [2] = experiment: Caspase-3/7 activity (AC-DEVD-AMC substrate) in PC-3 cells; type: cell-based, human; parameters: key to Caspase 3/7 Activity, PC-3: +: plus mark represents statistically important elevated activity of caspase 3/7 compared to control; details: +/− summary vs control
Description: (§1) Caspase-3 and caspase-7 are cysteine-aspartic acid proteases that can directly execute apoptosis […] sequential activation of caspase-8 or caspase-9. Activation of these enzymes leads to apoptotic cell death; thus, measuring their activity is a good method to determine the pro-apoptotic potential of tested compounds. One of the mechanisms of betulin’s antiproliferative activity is activation of these enzymes; therefore, to further examine the mechanism of action of tested derivatives, we decided to determine their levels.
(§2) The MV4-11, A549 and PC-3 cells were seeded on 48-well plates for a final volume of 1 mL. […] After incubation, the cells were collected and centrifuged (5 min., 4 °C, 250× g). Cells were suspended in 50 µL of ice-cold lysis buffer (50 mM HEPES, 10% (w/v) sucrose, 150 mM NaCl, 2 mM EDTA and 1% (v/v) Triton X-100, pH 7.3, HIIET, Poland) and incubated 30 min. at […]. After the incubation, 40 µL of each sample was transferred to a white, 96-well plate (Corning, CA, USA) containing 160 µL of the reaction buffer (20 mM HEPES, 10 % sucrose, 100 mM NaCl, 1 mM EDTA, 10 mM DTT, 0.02 % Trition X-100, pH 7.3) (HIIET, Wroclaw, Poland) with 9 µM AC-DEVD-AMC (Cayman Chemical) fluorogenic substrate (λex = 360 nm, λem = 460 nm). The fluorescence increase correlated with the caspase-3/7 level was continuously recorded at 37 °C for 120 min using a Biotek Synergy H4 (Biokom, Warsaw, Poland). Compounds were tested in duplicates in a single experiment and each experiment was repeated at least three times independently. Results were normalized to the number of cells in each well and are reported as mean relative caspase-3/7 activity compared to the untreated control sample ± SD.

MV4-11 cells [3] = experiment: Cell cycle analysis, PI staining flow cytometry, MV4-11; type: cell-based, human; details: about IC50, 24 and 72 h
Description: (§3) The effects of the selected derivatives on the cell cycle were analyzed by flow cytometry using PI staining.
(§4) The MV4-11, A549 and PC-3 cells were seeded on 24-well plates (Sarstedt, Germany) for a final volume of 1.5 mL. […] After incubation, the cells were collected and 1 × 10^6 of cells were washed twice in cold PBS and fixed for 24 h in 70% ethanol at −20 °C, the cells were washed twice in PBS and incubated with RNAse (8 μg/mL, Fermentas, Germany) at 37 °C for 1 h. The cells were stained for 30 min. with propidium iodide (50 μg/mL, Sigma Aldrich, Germany) at 4 °C and the cellular DNA content was analyzed by flow cytometry using BD LSRFortessa cytometer (BD Bioscience, San Jose, CA, USA). Compounds at each concentration were tested at least three times independently. The obtained results were analyzed using Flowing software 2.5.1 (Cell Imaging Core, Turku Centre for Biotechnology, University of Turku and Åbo Akademi University, Turku, Finland).

[4] = Cytotoxicity, SRB assay, normal BALB/3T3 fibroblasts; details: mouse, BALB/3T3 normal fibroblast cells
Description: as §7, §8, §9, §10, §11

PC-3 cells = experiment: Induction of apoptosis, Annexin V/PI staining, PC-3; type: cell-based, human; details: about 1.5 × IC50, 72 h
Description: (§5) Apoptosis is one of a cell’s natural mechanisms for programmed cell death. It plays a crucial role in homeostasis by eliminating the unwanted or unnecessary cells. One of the most important functions of apoptosis is prevention of cancer. However, cancer cells often lose the ability to enter the path of apoptosis, which allows them to survive longer and grow in an uncontrolled manner. Regardless of that, apoptosis still remains the most important molecular mechanism to combat cancer cells; therefore, research is conducted to obtain agents with the ability to selectively induce apoptosis in cancer cell lines.
(§6) The MV4-11, A549 and PC-3 cells were seeded on 24-well plates (Sarstedt, Germany) for a final volume of 1.5 mL. […] After incubation, the cells were collected and 2 × 10^5 of cells were washed twice with PBS. […] Results were analyzed using Flowing software 2.5.1. […]

caspase-3/7 [5] = experiment: Caspase-3/7 activity (AC-DEVD-AMC substrate) in A549 cells; type: cell-based, human; parameters: key: +: plus mark represents statistically important elevated activity of caspase 3/7 compared to control
Description: as §1, §2

A549 cells [6] = experiment: Induction of apoptosis, Annexin V/PI staining, A549; type: cell-based, human; details: about 1.5 × IC50, 24 h
Description: as §5, §6

MV4-11 cells [7] = experiment: Antiproliferative activity, MTT assay, MV4-11 leukemia cells; type: cell-based, human; details: for IC50: Homo sapiens, MV4-11, 72 h, 72 h incubation, MTT, read-out: Growth inhibition IC50, leukemia cell line MV4-11; for Calculated Selectivity Index SI, MV4-11: IC50 BALB/3T3 / IC50 MV4-11
Description: as §7, §8, §9, §10, §11

A549 cell line = experiment: Antiproliferative activity, SRB assay, A549 lung carcinoma cells; details: for IC50: Homo sapiens, A549, 72 h, read-out: Cytotoxicity IC50 against A549 cell line; for Calculated Selectivity Index SI, A549: IC50 BALB/3T3 / IC50 A549
Description: as §7, §8, §9, §10, §11

A549 cells [8] = experiment: Cell cycle analysis, PI staining flow cytometry, A549; type: cell-based, human; details: for Influence on cell cycle, A549, 72 h: about IC50, 72 h
Description: as §3, §4

caspase-3/7 [9] = experiment: Caspase-3/7 activity (AC-DEVD-AMC substrate) in MV4-11 cells; type: cell-based, human
Description: as §1
The MV4-11, A549 and PC-3 cells were seeded on 48-well plates for a final volume of 1 mL. […] After incubation, the cells were collected and centrifuged (5 min., 4 °C, 250× g). Cells were suspended in 50 µL of ice-cold lysis buffer (50 mM HEPES, 10% (w/v) sucrose, 150 mM NaCl, 2 mM EDTA and 1% (v/v) Triton X-100, pH 7.3, HIIET, Poland) and incubated 30 min. at 40 °C. […] The fluorescence increase correlated with the caspase-3/7 level was continuously recorded at 37 °C for 120 min using a Biotek Synergy H4 (Biokom, Warsaw, Poland). […]

in vitro = details: mouse
Description: as §7, §8, §9, §10, §11

[10] = parameters: method as in earlier work; details: literature lipophilicity of RP-TLC reference compounds; cited from earlier work
[11] = 1.5 × IC50, 24 h, several-fold lower at 72 h

Structure (SMILES) | IC50 (PC-3 cell line) [µM] | Calculated Selectivity Index SI, PC-3 (PC-3 cell line) | RM0 [1] | IC50 (MCF-7 cell line) [µM] | Calculated Selectivity Index SI, MCF-7 (MCF-7 cell line) | caspase 3/7 activity, A549 (caspase-3/7 [5]; [11]) | caspase 3/7 activity, A549 (caspase-3/7 [5]; +/− summary vs control) | IC50 (MV4-11 cells [7]) [µM] | Calculated Selectivity Index SI, MV4-11 (MV4-11 cells [7]) | IC50 (A549 cell line) [µM] | Calculated Selectivity Index SI, A549 (A549 cell line) | Influence on cell cycle, A549, 72 h (A549 cells [8]) | caspase-3/7 levels, MV4-11, 24 h (caspase-3/7 [9]) | IC50 at 72 h (in vitro) [µM] | further results
C=C(C)[C@@H]1CC[C@]2(COC(=O)CCC(=O)O)CC[C@]3(C)C(CCC4[C@@]5(C)CC[C@H](O)C(C)(C)C5CC[C@]43C)C12 (stereo partly drawn) [compound 2] | 68.5 | 0.8 | 5.910 | 53.6 | 1.0 | hugely elevated caspase 3/7 activity | + | 23.2 | 2.3 | 35.3 | 1.5 | greater percentage of dead cells with a decrease in G2/M and G0/G1 phases | – | – | log PTLC ([1]; from RM0 by calibration curve with eight reference compounds): 8.191; Caspase 3/7 Activity, PC-3 (caspase-3/7 [2]): +; Influence on cell cycle, MV4-11 (MV4-11 cells [3]): statistically significant increase in the number of cells in the G0/G1 phase; IC50 at 72 h [4]: 53.4 µM; Induction of apoptosis (AnV/PI), PC-3, 72 h (PC-3 cells): shifting the ratio of the living cell population towards apoptotic and necrotic ones; Induction of apoptosis (AnV/PI), A549, 24 h (A549 cells [6]): significantly increased levels of early-apoptotic and apoptotic cells; Influence on cell cycle, A549, 24 h (A549 cells [8]; about IC50, 24 h): significantly induced cell cycle arrest in the G0/G1 phase; also recorded: reduced the number of cells in the S phase with an increased number of dead cells
C=C(C)[C@@H]1CC[C@]2(COC(=O)CCC(=O)N3CCCCC3)CC[C@]3(C)C(CCC4[C@@]5(C)CC[C@H](O)C(C)(C)C5CC[C@]43C)C12 (stereo partly drawn) [2c] | 30.9 | 1.1 | 5.728 | 22.2 | 1.5 | hugely elevated caspase 3/7 activity | + | 5.78 | 5.7 | 6.98 | 4.7 | induced cycle arrest in the G0/G1 phase with a decrease in the G2/M phase | increased levels of caspase-3/7 | 32.7 | Antiproliferative Activity, A549 (A549 cell line; +/− summary, IC50 vs betulin 1): +
c1ccc(CCc2ccccc2)cc1 [dibenzyl, reference compound] | – | – | 3.54 | – | – | – | – | – | – | – | – | – | – | – | LogPlit [10]: 4.49
C=C(C)[C@@H]1CC[C@]2(COC(=O)CCC(=O)N3CCSCC3)CC[C@]3(C)C(CCC4[C@@]5(C)CC[C@H](O)C(C)(C)C5CC[C@]43C)C12 (stereo partly drawn) [2d] | 50 | 1.0 | 5.898 | 50 | 1.0 | – | – | 3.16 | 15.8 | 32 | 1.6 | greater percentage of dead cells with a decrease in G2/M and G0/G1 phases | increased levels of caspase-3/7 | > 50 | –
